Data from patent US20230028441A1, “NOVEL HETEROARYL-TRIAZOLE COMPOUNDS AS PESTICIDES” (Bayer Aktiengesellschaft, priority 2019, published 2023).

Experiments:
Type in all cases: in vivo
[1] = test system: cattle tick larvae (Rhipicephalus microplus), strain Parkhurst, resistant against synthetic pyrethroids; test: Rhipicephalus (Boophilus) microplus in-vitro contact test, larval cattle tick; details: 5 μg/cm^2 (=500 g/ha), after 48 hours, read-out: efficacy (larvae dead or moribund)
Outline: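 Efficacy, 100% meaning all larvae dead or moribund, was judged at 48 h from loss of negative geotactic climbing. Larvae of the Parkhurst strain, 20–50 per tube, were exposed at 27° C and 85% humidity to acetone-coated tube surfaces; 900 ppm corresponded to 5 μg/cm^2.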

[2] = test system: adult engorged female ticks (Rhipicephalus microplus); test: Rhipicephalus (Boophilus) microplus injection test; details: 168 h, egg deposition after 7 days, read-out: efficacy (infertile eggs); for pest or weed control at 0.004 mg: 4 μg/animal
Outline: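 Efficacy is the share of infertile eggs: 100% means none are fertile, 0% means all are fertile. Egg deposition was checked 7 days after injecting 1 μL of DMSO-diluted compound into the abdomen of five engorged female R. microplus, with doubtful eggs kept about 42 days to hatching. The stock was 10 mg in 0.5 mL DMSO.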

[3] = test system: adult cat fleas (Ctenocephalides felis); test: Ctenocephalides felis in-vitro contact test, adult cat flea; details: 5 μg/cm^2 (=500 g/ha), after 48 hours, read-out: efficacy (fleas dead or moribund)
Experimental: 9 mg compound is solved in 1 mL acetone and diluted with acetone to the desired concentration. 250 μL of the test solution is filled in 25 mL glass test tubes and homogeneously distributed on the inner walls by rotation and tilting on a shaking device (2 h at 30 rpm). With a compound concentration of 900 ppm, an inner surface of 44.7 cm^2 and a homogeneous distribution, a dose of 5 μg/cm^2 is achieved.
After the solvent has evaporated, each test tube is filled with 5-10 adult cat fleas (Ctenocephalides felis), closed with a perforated lid and incubated in a lying position at room temperature and relative humidity. After 48 hours efficacy is determined. The fleas are patted on the ground of the tubes and are incubated on a heating plate at 45-50° C. for at most 5 minutes. Immotile or uncoordinated moving fleas, which are not able to escape the heat by climbing upwards, are marked as dead or moribund.
An efficacy of 100% means all fleas are dead or moribund; 0% means no fleas are dead or moribund.

[4] = test system: adult unfed cat fleas (Ctenocephalides felis); test: Ctenocephalides felis oral test; details: 48 h, 100 ppm in cattle blood, after 2 days
Outline: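 Percent flea mortality recorded at 2 days. Compound was dissolved in dimethyl sulfoxide and diluted into cattle blood, which ~20 unfed adult cat fleas ingested through parafilm from a 37°C-heated chamber, their own chamber kept at room temperature.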

[5] = test system: adult brown dog ticks (Rhipicephalus sanguineus); test: Rhipicephalus sanguineus in-vitro contact test with adult brown dog ticks; details: after 48 hours, read-out: efficacy (ticks dead or moribund); for pest or weed control at 1 µg/cm2, 100 g/ha: 1 μg/cm^2 (=100 g/ha); for pest or weed control at 5 µg/cm2, 500 g/ha: 5 μg/cm^2 (=500 g/ha)
Outline: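 Efficacy is the percentage of adult ticks dead or moribund, meaning immotile or uncoordinated and unable to escape 45-50° C. heat within 5 min. Read 48 h after 5-10 ticks were enclosed at room temperature in acetone-coated glass tubes. Dose 5 μg/cm^2, from a 900 ppm coating solution.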

[6] = test system: larvae of the banded cucumber beetle (Diabrotica balteata); test: Diabrotica balteata spray test; details: 168 h, 100 g/ha (=32 μg/well), after 7 days, wheat seeds, read-out: efficacy (seedlings grown up)
Outline: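 Efficacy (%) read at day 7: 100% means seedlings grew like untreated, uninfested controls; 0% means no seedlings grew. Wheat seeds germinated 1 day on agar, sprayed with emulsified compound solution (1000 ppm emulsifier in water), then each well infested with 10-20 larvae.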

[7] = test system: green peach aphid (Myzus persicae); test: Myzus persicae oral test; details: 120 h
Experimental: Solvent: 100 parts by weight acetone
To produce a suitable preparation of active compound, 1 part by weight of active compound is mixed with the stated amount of solvent, and the concentrate is diluted with water to the desired concentration.
50 μL compound solution is filled in microtiter plates and 150 μL IPL41 insect medium (33%+15% sugar) is added to obtain a total volume of 200 μL per well. Afterwards the plates are sealed with parafilm through which a mixed population of the green peach aphid (Myzus persicae) can suck on the compound preparation.
(§1) After 5 days mortality in % is determined. 100% means all aphids have been killed and 0% means none of the aphids have been killed.

[8] = test system: green peach aphid (Myzus persicae); test: Myzus persicae spray test; details: foliar, 120 h, after 5 days, Chinese cabbage leaf disks
Experimental: Solvent: 78.0 parts by weight acetone • 1.5 parts by weight dimethylformamide
(§2) Emulsifier: alkylarylpolyglycol ether
(§3) To produce a suitable preparation of active compound, 1 part by weight of active compound is mixed with the stated amount of solvents and is diluted with water, containing an emulsifier concentration of 1000 ppm, to the desired concentration. Further test concentrations are prepared by dilution with emulsifier containing water.
Chinese cabbage (Brassica pekinensis) leaf disks infected with all instars of the green peach aphid (Myzus persicae), are sprayed with a preparation of the active ingredient of the desired concentration.
as §1

[9] = test system: larvae of the southern green stink bug (Nezara viridula); test: Nezara viridula spray test; details: in Hordeum vulgare, 96 h
Outline: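 Percent mortality of southern green stink bug larvae read 4 days after spraying infested Hordeum vulgare. Test solutions: compound in acetone plus dimethylformamide, diluted with emulsifier-containing water (1000 ppm alkylarylpolyglycol ether).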

[10] = test system: fall armyworm larvae (Spodoptera frugiperda); test: Spodoptera frugiperda spray test (maize leaf sections); details: 168 h
Outline: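 Percent kill of Spodoptera frugiperda larvae was recorded 7 days after infesting dried, treated maize leaf sections. Spray solutions were made from an acetone/DMF compound preparation diluted with 1000 ppm emulsifier-containing water.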

[11] = test system: caterpillars of the fall army worm (Spodoptera frugiperda); test: Spodoptera frugiperda spray test (cotton leaves); details: 168 h
Experimental: Solvent: 14 parts by weight of dimethylformamide
Emulsifier: alkylaryl polyglycol ether
as §3, with “solvent” for “solvents”, “water. Ammonium salt and/or penetration enhancer in a dosage of 1000 ppm are added to the desired concentration if necessary.” for “water.”
Cotton leaves (Gossypium hirsutum) are treated by being sprayed with the preparation of the active compound of the desired concentration and are infested with caterpillars of the fall army worm (Spodoptera frugiperda).
After 7 days mortality in % is determined. 100% means all the caterpillars have been killed and 0% means none of the caterpillars have been killed.

[12] = test system: brown planthopper (Nilaparvata lugens); test: Nilaparvata lugens spray test; details: in Oryza sativa, 96 h
Experimental: Solvent: 78.0 parts by weight of acetone • • 1.5 parts by weight of dimethylformamide
as §2, §3
Rice plants (Oryza sativa) are sprayed with a preparation of the active ingredient of the desired concentration and the plants are infested with the brown planthopper (Nilaparvata lugens).
After 4 days mortality in % is determined. 100% means all planthoppers have been killed and 0% means none of the planthoppers have been killed.

Structure (SMILES) | pest or weed control at 5 µg/cm2 [1] [%] | pest or weed control at 0.004 mg [2] [%] | pest or weed control at 5 µg/cm2 [3] [%] | mortality at 100 ppm [4] [%] | pest or weed control at 1 µg/cm2, 100 g/ha [5] [%] | pest or weed control at 5 µg/cm2, 500 g/ha [5] [%] | pest or weed control at 32 µg/disc, 100 g/ha [6] [%] | mortality at 4 ppm [7] [%] | mortality at 100 g/ha [8] [%] | mortality at 100 g/ha [9] [%] | mortality at 100 g/ha [10] [%] | mortality at 500 g/ha [9] [%] | mortality at 20 ppm [11] [%] | mortality at 500 g/ha [12] [%] | pest or weed control at 0.02 mg ([2]; 20 μg/animal) [%] | mortality at 500 g/ha [10] [%] | mortality at 500 g/ha ([8]; 500 g/ha) [%]
CC(NC(=O)c1cc(C(F)(F)F)cc(C(F)(F)F)c1)c1nc(N)nn1-c1ncccn1 (stereo not drawn) [I-007] | 100 | 100 | 100 | 100 | 100 | 100 | 100 | 100 | 90 | 100 | 100 | – | – | – | – | – | –
CNc1nc([C@H](C)NC(=O)c2cc(Br)cc(OC(F)(F)F)c2)n(-c2ccc(C#N)cn2)n1 [I-142] | – | – | – | – | – | – | 100 | – | – | – | 100 | 100 | 100 | – | – | – | –
CC(NC(=O)c1cc(Cl)cc(OC(F)(F)F)c1)c1nc(N)nn1-c1ncccn1 (stereo not drawn) [I-090] | 90 | 100 | 90 | 100 | – | – | 100 | – | 90 | – | 100 | – | – | – | – | – | –
C[C@H](NC(=O)c1cc(C(F)(F)F)cc(C(F)(F)F)c1)c1nc(N)nn1-c1ncccn1 [I-134, N-[(1S)-1-(5-amino-2-pyrimidin-2-yl-1,2,4-triazol-3-yl)ethyl]-3,5-bis(trifluoromethyl) benzamide] | 100 | – | 100 | – | 100 | 100 | 100 | – | 100 | – | 100 | 100 | – | 100 | – | – | –
C[C@H](NC(=O)c1cc(Cl)cc(C(C)(C)C#N)c1)c1nc(N(C)C)nn1-c1ncc(Cl)cn1 [I-178] | – | – | – | – | – | – | 100 | – | 90 | – | 100 | 100 | – | 100 | – | – | –
CNc1nc([C@H](C)NC(=O)c2cc(C(F)(F)F)cc(C(F)(F)F)c2)n(-c2ncccn2)n1 [I-127, N-[(1S)-1-[5-(methylamino)-2-pyrimidin-2-yl-1,2,4-triazol-3-yl]ethyl]-3,5-bis(trifluoromethyl)benzamide] | 100 | – | 100 | – | 100 | 100 | 100 | – | 90 | – | 100 | 100 | – | 90 | – | – | –
CC(NC(=O)c1cc(C(F)(F)F)cc(C(F)(F)F)c1)c1nc(N(C)C)nn1-c1ncc(Cl)cn1 (stereo not drawn) [I-165] | – | – | – | – | – | – | 100 | – | 90 | – | 100 | 100 | – | 100 | – | – | –
CNc1nc([C@H](C)NC(=O)c2cc(OC(F)(F)F)cc(S(=O)(=O)C3CC3)c2)n(-c2ncccn2)n1 [I-184] | – | – | – | – | – | – | 100 | – | 90 | – | – | 100 | – | 100 | – | – | –
CON(C)c1nc([C@H](C)NC(=O)c2cc(Cl)cc(C(C)(C)C#N)c2)n(-c2ncccn2)n1 [I-163] | – | – | – | – | – | – | 100 | – | 100 | – | 100 | 100 | – | 100 | – | – | –
CC(NC(=O)c1cc(Cl)cc(C(F)(F)F)c1)c1nc(CS(C)(=O)=O)nn1-c1ccc(Cl)cn1 (stereo not drawn) [I-029] | – | 100 | – | 100 | – | – | – | – | – | – | 100 | – | 100 | – | 100 | 100 | –
CNc1nc([C@H](C)NC(=O)c2cc(Br)cc(Br)c2)n(-c2ccc(C#N)cn2)n1 [I-143] | – | – | – | – | – | – | 100 | – | – | – | 100 | 100 | 100 | – | – | – | –
C[C@H](NC(=O)c1cc(Cl)cc(S(C)(=O)=O)c1)c1nc(N)nn1-c1ccc(C#N)cn1 [I-148, N-[(1S)-1-[5-amino-2-(5-cyano-2-pyridyl)-1,2,4-triazol-3-yl]ethyl]-3-chloro-5-methylsulfonyl-benzamide] | 90 | – | – | – | – | – | 100 | – | 90 | – | 100 | 100 | – | 100 | – | – | –
CC(NC(=O)c1cc(OC(F)(F)F)cc(S(C)(=O)=O)c1)c1nc(N(C)C)nn1-c1ncc(Cl)cn1 (stereo not drawn) [I-192] | – | – | – | – | – | – | 100 | – | 90 | – | 100 | 100 | – | 100 | – | – | –
C[C@H](NC(=O)c1cc(Cl)cc(S(C)(=O)=O)c1)c1nc(N(C)C)nn1-c1ncc(Cl)cn1 [I-179] | – | – | – | – | – | – | 100 | – | 90 | – | 100 | 100 | – | 100 | – | – | –
CC(NC(=O)c1cc(Br)cc(OC(F)(F)F)c1)c1nc(N)nn1-c1ncccn1 (stereo not drawn) [I-095] | 100 | – | 90 | – | – | – | 100 | 100 | – | – | – | 90 | – | – | – | – | 90
CNc1nc([C@H](C)NC(=O)c2cc(Cl)cc(S(=O)(=O)C(F)F)c2)n(-c2ncccn2)n1 [I-202] | – | – | – | – | – | – | 100 | – | 90 | – | 100 | 100 | – | 100 | – | – | –
